# Test results: patent publication US10442810B2, “Pyrrolotriazine compounds as TAM inhibitors” (Incyte Corporation, priority 2016, dated 2019)
# Experiments:
# Tyro3 = Tyro3 (Homo sapiens (Human), UniProt Q06418); experiment: TAM Enzymatic Assay (HTRF), Tyro3; type: biochemical; conditions: 0.366 nM Tyro3, 60 min room temperature
# Protocol: (§1) The kinase assay buffer contained 50 mM HEPES, pH7.5, 10 mM MgCl2, 1 mM EGTA, 0.01% NP-40 and 2 mM DTT. 0.1 ul test compounds dissolved in DMSO were transferred from compound plates to white 384-well assay plates (Greiner […] plates). […] 4 ul enzyme solution (or assay buffer for the enzyme blank) was added to the appropriate wells in each plate, and then 4 ul/well substrate solution was added to initiate the reaction. The plate was protected from light and incubated at room temperature for 60 min. […] The plate was incubated for 1 h at room temperature, and HTRF (homogenous time resolved fluorescence) signal was measured on a PHERAstar FS plate reader (BMG labtech). Percentage of inhibition was calculated for each concentration and IC50 value was generated from curve fitting with GraphPad Prism software.
# Axl = Axl (Homo sapiens (Human), UniProt P30530); experiment: TAM Enzymatic Assay (HTRF), phosphor-Axl; type: biochemical; conditions: 5.1 nM phosphor-Axl, 60 min room temperature
# Sequence of Axl (P30530 26-894): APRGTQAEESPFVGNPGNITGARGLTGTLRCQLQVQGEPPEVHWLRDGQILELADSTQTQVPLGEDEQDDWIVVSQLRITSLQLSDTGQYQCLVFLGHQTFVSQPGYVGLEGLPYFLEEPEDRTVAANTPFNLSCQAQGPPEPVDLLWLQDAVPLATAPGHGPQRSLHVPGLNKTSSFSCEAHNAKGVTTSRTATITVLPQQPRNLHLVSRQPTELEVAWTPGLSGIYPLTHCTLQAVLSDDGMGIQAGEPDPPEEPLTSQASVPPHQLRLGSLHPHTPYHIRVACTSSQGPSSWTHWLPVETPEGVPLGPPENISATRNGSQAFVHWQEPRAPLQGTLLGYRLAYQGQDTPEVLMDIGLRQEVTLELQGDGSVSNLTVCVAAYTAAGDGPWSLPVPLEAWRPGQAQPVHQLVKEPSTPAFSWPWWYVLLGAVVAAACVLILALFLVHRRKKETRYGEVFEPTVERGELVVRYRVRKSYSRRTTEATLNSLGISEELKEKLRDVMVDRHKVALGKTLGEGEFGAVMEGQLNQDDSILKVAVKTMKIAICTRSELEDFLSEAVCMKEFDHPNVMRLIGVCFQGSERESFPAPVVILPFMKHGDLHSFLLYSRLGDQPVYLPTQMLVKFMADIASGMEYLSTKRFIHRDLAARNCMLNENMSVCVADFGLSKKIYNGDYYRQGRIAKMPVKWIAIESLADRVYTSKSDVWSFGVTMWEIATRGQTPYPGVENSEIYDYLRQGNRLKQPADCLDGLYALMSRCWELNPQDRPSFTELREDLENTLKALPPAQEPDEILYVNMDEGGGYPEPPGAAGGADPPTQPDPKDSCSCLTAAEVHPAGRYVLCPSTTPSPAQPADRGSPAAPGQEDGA
# Protocol: Autophosphorylation of Axl was carried out by incubating the recombinant Axl protein (Life Technologies, PV4275) in buffer containing 50 mM Tris, pH7.5, 0.2 mg/ml Axl, 5 mM ATP, 20 mM MgCl2 and 2 mM DTT at room temperature for 1 hour.
# as §1
# c-Mer = c-Mer (Homo sapiens (Human), UniProt Q12866); experiment: TAM Enzymatic Assay (HTRF), c-Mer; type: biochemical; conditions: 0.0625 nM c-Mer, 60 min room temperature
# Sequence of c-Mer (Q12866 21-999): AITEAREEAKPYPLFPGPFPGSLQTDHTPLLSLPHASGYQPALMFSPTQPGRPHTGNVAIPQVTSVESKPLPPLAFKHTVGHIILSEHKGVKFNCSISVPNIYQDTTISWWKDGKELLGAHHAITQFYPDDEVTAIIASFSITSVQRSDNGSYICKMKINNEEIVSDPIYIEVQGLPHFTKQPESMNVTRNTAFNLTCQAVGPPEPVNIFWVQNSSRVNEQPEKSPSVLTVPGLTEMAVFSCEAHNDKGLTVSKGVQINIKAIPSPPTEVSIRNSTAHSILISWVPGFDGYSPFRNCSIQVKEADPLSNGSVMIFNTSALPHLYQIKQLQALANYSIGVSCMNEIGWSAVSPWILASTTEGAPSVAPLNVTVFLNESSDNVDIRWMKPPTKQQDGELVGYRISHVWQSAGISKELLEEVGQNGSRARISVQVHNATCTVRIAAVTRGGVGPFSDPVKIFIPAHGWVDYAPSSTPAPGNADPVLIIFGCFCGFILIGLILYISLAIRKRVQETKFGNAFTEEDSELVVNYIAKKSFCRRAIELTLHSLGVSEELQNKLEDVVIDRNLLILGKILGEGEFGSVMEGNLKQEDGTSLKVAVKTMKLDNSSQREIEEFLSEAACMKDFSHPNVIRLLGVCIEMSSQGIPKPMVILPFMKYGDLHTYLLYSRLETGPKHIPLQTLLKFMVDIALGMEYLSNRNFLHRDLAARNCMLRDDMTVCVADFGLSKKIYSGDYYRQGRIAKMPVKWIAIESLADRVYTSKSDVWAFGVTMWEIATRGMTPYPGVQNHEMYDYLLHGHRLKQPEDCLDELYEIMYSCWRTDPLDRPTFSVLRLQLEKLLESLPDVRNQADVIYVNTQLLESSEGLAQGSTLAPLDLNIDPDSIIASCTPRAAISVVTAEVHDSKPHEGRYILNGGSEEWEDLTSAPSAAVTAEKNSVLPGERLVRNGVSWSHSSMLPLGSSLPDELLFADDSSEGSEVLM
# Protocol: as §1
# [1] = test system: tumor models with different histologies; conditions: Paolino et al., 2014; cited from earlier work
# NK cells = conditions: Paolino et al., 2014; cited from earlier work
# Sequence of Tyro3 (Q06418 41-890): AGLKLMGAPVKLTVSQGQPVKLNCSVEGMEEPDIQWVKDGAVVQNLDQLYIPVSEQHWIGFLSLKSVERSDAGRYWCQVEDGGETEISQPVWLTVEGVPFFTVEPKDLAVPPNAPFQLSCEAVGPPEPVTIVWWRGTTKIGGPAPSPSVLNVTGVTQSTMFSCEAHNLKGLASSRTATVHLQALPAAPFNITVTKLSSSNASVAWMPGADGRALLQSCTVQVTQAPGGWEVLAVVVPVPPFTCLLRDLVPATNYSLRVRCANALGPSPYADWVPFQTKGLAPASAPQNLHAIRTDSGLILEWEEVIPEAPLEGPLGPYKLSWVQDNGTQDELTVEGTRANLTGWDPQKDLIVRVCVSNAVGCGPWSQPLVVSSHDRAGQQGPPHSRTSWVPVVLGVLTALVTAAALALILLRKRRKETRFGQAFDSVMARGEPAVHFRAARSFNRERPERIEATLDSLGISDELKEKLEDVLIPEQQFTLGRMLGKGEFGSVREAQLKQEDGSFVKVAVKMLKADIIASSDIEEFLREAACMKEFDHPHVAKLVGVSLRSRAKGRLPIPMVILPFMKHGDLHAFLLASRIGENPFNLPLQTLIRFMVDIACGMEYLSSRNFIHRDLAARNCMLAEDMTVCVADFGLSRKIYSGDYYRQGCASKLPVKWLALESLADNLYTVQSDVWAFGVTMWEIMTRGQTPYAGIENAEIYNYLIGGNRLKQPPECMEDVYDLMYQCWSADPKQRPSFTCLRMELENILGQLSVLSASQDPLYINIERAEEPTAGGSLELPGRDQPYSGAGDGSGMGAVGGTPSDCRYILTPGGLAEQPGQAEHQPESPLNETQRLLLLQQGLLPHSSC
Structure (SMILES),IC50 (Tyro3),IC50 (Axl),IC50 (c-Mer),metastasis in tumor models [1],activation of NK cells (NK cells)
"CC(O)Cn1cc(C(=O)Nc2ccc(-c3cc(C4CCN(C(=O)C5CC5)CC4)n4ncnc(N)c34)cc2)c(=O)n(-c2ccccc2)c1=O (racemic) [Example 80, N-(4-(4-Amino-7-(1-(cyclopropanecarbonyl)piperidin-4-yl)pyrrolo[1,2-f][1,2,4]triazin-5-yl)phenyl)-1-(2-hydroxypropyl)-2,4-dioxo-3-phenyl-1,2,3,4-tetrahydropyrimidine-5-carboxamide]",> 100 nM,< 5 nM,,,
"CC(C)n1cc(C(=O)Nc2ccc(-c3cc(C4CCN(C5CCN(C)C5=O)CC4)n4ncnc(N)c34)cc2)c(=O)n(-c2ccccc2)c1=O (racemic) [Example 82, N-(4-(4-Amino-7-(1-(1-methyl-2-oxopyrrolidin-3-yl)piperidin-4-yl)pyrrolo[1,2-f][1,2,4]triazin-5-yl)phenyl)-1-isopropyl-2,4-dioxo-3-phenyl-1,2,3,4-tetrahydropyrimidine-5-carboxamide]",,< 5 nM,≤ 5 nM,,
"CC(=O)c1cc(C(=O)Nc2ccc(-c3cc(C4CCN(C(=O)C(C)C)CC4)n4ncnc(N)c34)cc2)c(=O)n(-c2ccccc2)c1C [Example 112, 5-Acetyl-N-(4-(4-amino-7-(1-isobutyrylpiperidin-4-yl)pyrrolo[1,2-f][1,2,4]triazin-5-yl)phenyl)-6-methyl-2-oxo-1-phenyl-1,2-dihydropyridine-3-carboxamide]",10 to 100 nM,< 5 nM,≤ 5 nM,,
CCOc1cn(-c2ccc(F)cc2C)nc1C(=O)Nc1ccc(Oc2ccnc3cc(OC)c(OC)cc23)c(F)c1 [LDC1267],,,,blocks metastasis,activates NK cells
